# Source: patent US9421204B2, “Oligomer modified diaromatic substituted compounds” (priority 2010, dated 2016)
# “And” between values parts separate entries of the source, which are not always exact repeats. Equal values may be shown once. Read-outs that look alike come from different tables or passages of the source.
# Columns and labels:
# in vitro = in vitro ADME; conditions: human
# Method: Each determination was performed in duplicate.
# Vr is the volume of the receiver compartment in cm^3.
# Vd is the volume of the donor compartment in cm^3.
# A is the area of the cell monolayer (1.13 cm^2 for 12-well Transwell®).
# CN is the nominal dosing concentration of the dosing solution in μM.
# CA is the average of the nominal dosing concentration and the measured 120 minute donor concentration in μM.
# Cr^final is the receiver concentration in μM at the end of the incubation period.
# Cd^final is the concentration of the donor in μM at the end of the incubation period.
# HIV-1RF = experiment: Anti-HIV-1 cytoprotection assay in CEM-SS cells; format: cell-based
# Method: Cell Preparation—CEM-SS cells were passaged in T-75 flasks prior to use in the antiviral assay. On the day preceding the assay, the cells were split 1:2 to assure they were in an exponential growth phase at the time of infection. Total cell and viability quantification was performed using a hemocytometer and Trypan Blue dye exclusion. […] The cells were resuspended at 5×10^4 cells per ml in tissue culture medium and added to the drug containing microtiter plates in a volume of 50 μL.
# Virus Preparation—The virus used for the assay was the lymphocyte-tropic virus strain HIV-IRF. The virus was obtained from the NIH AIDS Research and Reference Reagent Program and stock virus pools were produced in CEM-SS cells. A pretitred aliquot of virus was removed from the freezer (−80° C.) and allowed to thaw slowly to room temperature in a biological safety cabinet.
# (§1) Plate Format—Each plate contains cell control wells (cells only), virus control wells (cells plus virus), drug toxicity wells (cells plus drug only), drug colorimetric control wells (drug only) as well as experimental wells (drug plus cells plus virus). Samples were tested in triplicate with eleven half-log dilutions per compound.
# (§2) Efficacy and Toxicity XTT—Following incubation at 37° C. in a 5% CO2 incubator, the test plates were stained with the tetrazolium dye XTT (2,3-bis(2-methoxy-4-nitro-5-sulfophenyl)-5-[(phenylamino)carbonyl]-2H-tetrazolium hydroxide). XTT-tetrazolium is metabolized by the mitochondrial enzymes of metabolically active cells to a soluble formazan product, allowing rapid quantitative analysis of the inhibition of HIV induced cell killing by anti-HIV test substances. XTT solution was prepared daily as a stock of 1 mg/mL in RPMI1640. Phenazine methosulfate (PMS) solution was prepared at 0.15 mg/mL in PBS and stored in the dark at −20° C. XTT/PMS stock was prepared immediately before use by adding 40 μL of PMS per ml of XTT solution. Fifty microliters of XTT/PMS was added to each well of the plate and the plate was re-incubated for 4 hours at 37° C. Plates were sealed with adhesive plate sealers and shaken gently or inverted several times to mix the soluble fosmazan product and the plate was read spectrophotometrically at 450/650 nm with a Molecular Devices Vmax plate reader.
# Anti-HIV-1 Cytopathic Effects Inhibition Assay Evaluations: Eight compounds were evaluated against the RF strain of HIV-1 in CEM-SS cells using a 12 concentration dose response curve.
# (§3) Data Analysis—Raw data was collected from the Softmax Pro 4.6 software and imported into a Excel XLFit4 spreadsheet for analysis by four parameter curve fit calculations. Both antiviral activity and toxicity are calculated.
# [1] = Toxicity XTT in CEM-SS cells (cytoprotection assay); format: cell-based; conditions: human, CEM-SS cells, XTT; read-out: CEM-SS TC50
# Method: Cell Preparation—CEM-SS cells were passaged in T-75 flasks prior to use in the antiviral assay. On the day preceding the assay, the cells were split 1:2 to assure they were in an exponential growth phase at the time of infection. Total cell and viability quantification was performed using a hemocytometer and Trypan Blue dye exclusion. Cell viability was greater than 95% for the cells to be utilized in the assay. The cells were resuspended at 5×10^4 cells per ml in tissue culture medium and added to the drug containing microtiter plates in a volume of 50 μL.
# as §1, §2, §3
# Wild Type RT = Wild Type RT (Human immunodeficiency virus type 1 group M subtype B, UniProt P04585); experiment: HIV-1 Reverse Transcriptase Inhibition Assay; format: biochemical; conditions: Wild Type RT IC50
# Method: The following materials were removed from the freezer and were stored on wet ice (dGTP, ^32P, purified enzyme extract, rCdG, dGTP, DNA). Test compounds were evaluated at a high test of 100 μM diluted in dH2O and if the stock solution was turbid, 1:1000 Triton-X was added to the stock solution. Thirty microliters (30 μL) of each dilution was then transferred in duplicate to the appropriate well of a 96-well plate. The positive and negative control wells each received 30 μL of dH2O instead of the compound. A 2× buffer was prepared in the following manner: 125 μL 2M Tris pH 8.0, 250 μL 3M KCl, 80 μL 1 M MgC12, 10 μL 2 M DTT, 40 μL 25 U/mL rCdG, 100 μL 1 mM dGTP, 10 μL 800 Ci/mMol alpha ^32P:dG TP, and 4.4 mL dH2O. Fifty microliters (50 μL) of 2× buffer was added to every well of the plate. BSA was diluted 1:100 and Triton-X 1:1000 in dH2O and the enzyme was added to the mixture at a 1:400 dilution. Twenty microliters (20 μL) of the enzyme solution was added to all of the wells of the plate except the negative control wells. Distilled water was used instead of enzyme in these wells. The plate was incubated at 37° C. for 30 minutes. Following incubation, 10 μL of 10 mg/mL DNA (MB-grade fish sperm) was added to each well, followed by 150 μL of cold 10% TCA in each well. The plate was incubated at room temperature for approximately 15 minutes in order to allow for precipitation of the samples. Following the incubation the contents were transferred to the appropriate filter plate. The plate was placed on the vacuum manifold and pushed firmly to induce suction. Wells were rinsed with 200 μL of cold TCA. Again, the plate was pushed down firmly and vacuum suction was applied. Once all of the liquid was aspirated from the filter plate, it was removed from the manifold and residual liquid was blotted from the bottom of the plastic base. The filtered wells were separated from the plastic base and the wells were blotted on clean, absorbent paper. The filtered wells were pushed into the cassette and a sheet of Millipore multiscreen tape was placed on the bottom of a Wallace Microbeta cassette covering all of the holes. Twenty microliters (20 μL) of Wallace Supermix Scintillant was added to each well and the top of the wells were covered with a sheet of the multiscreen tape. The plate was read on the Wallace MicroBeta counter to measure incorporated ^32P.
# [2] = Caco-2 permeability characterization (plate certification); conditions: human; for Papp A→B: Caco-2, (A-to-B) Papp; for Papp B→A: Caco-2, (B-to-A) Papp; for efflux ratio: Caco-2, Efflux Ratio
# Method: The objective of this study was to determine the bidirectional Caco-2 permeability of test compounds. Caco-2 monolayers were grown to confluence on collagen-coated, microporous, polycarbonate membranes in 12-well Costar Transwell® plates. Details of the plates and their certification are shown below. The permeability assay buffer for the donor chambers was Hanks Balanced Salt Solution containing 10 mM HEPES and 15 mM glucose (HBSSg) at a pH of 7.4. The buffer in the receiver chambers also contained 1% bovine serum albumin (BSA). The dosing solution concentrations were 10 μM in the assay buffer. Cell monolayers were dosed on the apical side (A to-B) or basolateral side (B-to-A) and incubated at 37° C. with 5% CO2 in a humidified incubator. After 2 hours, aliquots were taken from the receiver and donor chambers. Each determination was performed in duplicate. The lucifer yellow flux was also measured for each monolayer to ensure no damage was inflicted to the cell monolayers during the flux period. All samples were assayed by LC/MS/MS using electrospray ionization.
# [3] = Toxicity XTT in CEM-SS cells (drug resistant strain assay); format: cell-based; conditions: human, CEM-SS cells, read-out: TC50 (the source's name)
# Method: (§4) Cells were prepared as described above. Virus Preparation—The wild type NL4-3 and drug resistant A17 viruses were obtained from the NIH AIDS Research and Reference Reagent Program and stock virus pools were produced in CEM-SS cells. Amino acid substitutes of L100I, Y181C and P23L were introduced by site-directed mutagenesis into pN L4-3 and stock virus pools were produced in CEM-SS cells. A pretitered aliquot of virus was removed from the freezer (−80° C.) and allowed to thaw slowly to room temperature in a biological safety cabinet. Virus was re-suspended and diluted into tissue culture medium such that the amount of virus added to each well in a volume of 50 μL was the amount determined to yield 85 to 95% cell killing at 6 days post-infection.
# as §2, with “Plate Format—Each plate contains cell control wells (cells only), virus control wells (cells plus virus), drug toxicity wells (cells plus drug only), drug colorimetric control wells (drug only) as well as experimental wells (drug plus cells plus virus). Samples were tested in triplicate with eleven half-log dilutions per compound. Efficacy” for “Efficacy”, “XTT-tetrazolium was” for “XTT-tetrazolium is”, “C. XTTIPMS” for “C. XTT/PMS”, “soluble formazan” for “soluble fosmazan”
# as §3
# A17K103N/Y181C = experiment: Anti-HIV cytoprotection assay, drug resistant A17; format: cell-based; conditions: Human immunodeficiency virus 1, CEM-SS, HIV-1 strain A17K103N/Y181C, CEM-SS cells
# Method: as §4, with “cabinet.” for “cabinet. Virus was re-suspended and diluted into tissue culture medium such that the amount of virus added to each well in a volume of 50 μL was the amount determined to yield 85 to 95% cell killing at 6 days post-infection.”
# as §2, with “Plate Format—Each plate contains cell control wells (cells only), virus control wells (cells plus virus), drug toxicity wells (cells plus drug only), drug colorimetric control wells (drug only) as well as experimental wells (drug plus cells plus virus). Samples were tested in triplicate with eleven half-log dilutions per compound. Efficacy” for “Efficacy”, “XTT-tetrazolium was” for “XTT-tetrazolium is”, “C. XTTIPMS” for “C. XTT/PMS”, “soluble formazan” for “soluble fosmazan”
# as §3
# NL4-3L100I = experiment: Anti-HIV cytoprotection assay, drug resistant NL4-3 L100I; format: cell-based; conditions: Human immunodeficiency virus 1, CEM-SS, HIV-1 strain NL4-3L100I, CEM-SS cells
# Method: as §4
# as §2, with “Plate Format—Each plate contains cell control wells (cells only), virus control wells (cells plus virus), drug toxicity wells (cells plus drug only), drug colorimetric control wells (drug only) as well as experimental wells (drug plus cells plus virus). Samples were tested in triplicate with eleven half-log dilutions per compound. Efficacy” for “Efficacy”, “XTT-tetrazolium was” for “XTT-tetrazolium is”, “C. XTTIPMS” for “C. XTT/PMS”, “soluble formazan” for “soluble fosmazan”
# as §3
# NL4-3P236L = experiment: Anti-HIV cytoprotection assay, drug resistant NL4-3 P236L; format: cell-based; conditions: HIV-1 strain NL4-3P236L; for EC50: CEM-SS cells
# Method: as §4
# as §2, with “Plate Format—Each plate contains cell control wells (cells only), virus control wells (cells plus virus), drug toxicity wells (cells plus drug only), drug colorimetric control wells (drug only) as well as experimental wells (drug plus cells plus virus). Samples were tested in triplicate with eleven half-log dilutions per compound. Efficacy” for “Efficacy”, “XTT-tetrazolium was” for “XTT-tetrazolium is”, “C. XTTIPMS” for “C. XTT/PMS”, “soluble formazan” for “soluble fosmazan”
# as §3
# NL4-3Y181C = experiment: Anti-HIV cytoprotection assay, drug resistant NL4-3 Y181C; format: cell-based; conditions: HIV-1 strain NL4-3Y181C; for EC50: CEM-SS cells
# Method: as §4
# as §2, with “Plate Format—Each plate contains cell control wells (cells only), virus control wells (cells plus virus), drug toxicity wells (cells plus drug only), drug colorimetric control wells (drug only) as well as experimental wells (drug plus cells plus virus). Samples were tested in triplicate with eleven half-log dilutions per compound. Efficacy” for “Efficacy”, “XTT-tetrazolium was” for “XTT-tetrazolium is”, “C. XTTIPMS” for “C. XTT/PMS”, “soluble formazan” for “soluble fosmazan”
# as §3
# [4] = Human immunodeficiency virus 1, CEM-SS
structure (smiles),measurement,setting,value
COCCOCCOCCNc1ccc2[nH]c(C(=O)N3CCN(c4ncccc4NC(C)C)CC3)cc2c1 [5-mPEG3-NH-Delavirdine],"Papp A→B at 2 hours, 10 μM","in vitro; Caco-2, pH 7.4, Test 2, 10 μM, 2 hours, pH 7.4, read-out: Average Papp, A→B",33.3 ×10⁻⁶ cm/s
same,"Papp B→A at 2 hours, 10 μM","in vitro; Caco-2, pH 7.4, Test 2, 10 μM, 2 hours, pH 7.4, read-out: Average Papp, B→A",41.8 ×10⁻⁶ cm/s
same,"recovery at 2 h, 10 μM","in vitro; Caco-2, pH 7.4, Test 2, 10 μM, 2 hours, read-out: Recovery (%) A→B",94%
same,"recovery at 2 h, 10 μM","in vitro; Caco-2, pH 7.4, Test 2, 10 μM, 2 hours, read-out: Recovery (%) B→A",96%
same,"efflux ratio at 2 hours, 10 μM","in vitro; Caco-2, pH 7.4, Test 2, read-out: Efflux Ratio (B→A/A→B)",1.3
same,Therapeutic Index,HIV-1RF; CEM-SS/HIV-1RF,212.67
same,EC50,"HIV-1RF; Human immunodeficiency virus 1, CEM-SS, CEM-SS cells, XTT, read-out: CEM-SS/HIV-1RF EC50",160 nM
same,CC50,[1],34.9 µM
same,IC50,Wild Type RT,1000 nM
C[C@H]1O[C@@H](O[C@H]2[C@@H](O)C[C@H](O[C@H]3[C@@H](O)C[C@H](O[C@H]4CC[C@@]5(C)[C@H](CC[C@@H]6[C@@H]5C[C@@H](O)[C@]5(C)[C@@H](C7=CC(=O)OC7)CC[C@]65O)C4)O[C@@H]3C)O[C@@H]2C)C[C@H](O)[C@@H]1O [Digoxin],Papp A→B,"[2]; Test 1, Passage Number 65",0.47 ×10⁻⁶ cm/s
same,Papp A→B,"[2]; Test 2, Passage Number 59",0.65 ×10⁻⁶ cm/s
same,Papp A→B,"[2]; Test 2, Passage Number 67",0.75 ×10⁻⁶ cm/s
same,Papp B→A,"[2]; Test 1, Passage Number 65",11 ×10⁻⁶ cm/s
same,Papp B→A,"[2]; Test 2, Passage Number 59",16.9 ×10⁻⁶ cm/s
same,Papp B→A,"[2]; Test 2, Passage Number 67",13.4 ×10⁻⁶ cm/s
same,efflux ratio,"[2]; Test 1, Passage Number 65",23
same,efflux ratio,"[2]; Test 2, Passage Number 59",26
same,efflux ratio,"[2]; Test 2, Passage Number 67",18
"Cc1ccnc2c1NC(=O)c1cccnc1N2C1CC1 [Nevirapine, reference compound]",CC50,[3]; run with HIV-1 strain A17K103N/Y181C,> 10 µM
same,CC50,[3]; run with HIV-1 strain NL4-3,> 10 µM
same,CC50,[3]; run with HIV-1 strain NL4-3L100I,> 10 µM
same,CC50,[3]; run with HIV-1 strain NL4-3P236L,> 10 µM
same,CC50,[3]; run with HIV-1 strain NL4-3Y181C,> 10 µM
same,EC50,A17K103N/Y181C,> 10 µM
same,EC50,NL4-3L100I,> 10 µM
same,TI,NL4-3P236L,>33.3 and >35.7
same,EC50,NL4-3P236L,280 nM
same,EC50,NL4-3P236L; [4],300 nM
same,TI,NL4-3Y181C,>1.2
same,EC50,NL4-3Y181C,8.59 µM
same,EC50,NL4-3Y181C; [4],> 10 µM
CC(C)NCC(O)COc1cccc2ccccc12 (centres unmarked) [Propranolol],Papp,"[2]; Caco-2, Papp",20.8 ×10⁻⁶ cm/s
